Test results from publication PMC9005681, “Use of AD Informer Set compounds to explore validity of novel targets in Alzheimer's disease pathology” (Alzheimer's & Dementia : Translational Research & Clinical …, 2022).
Each block holds one compound with its values, some of them ahead of it.

Legend:
Experiment in all cases: PDSP GPCR panel primary binding assays at 10 μM
[1] = target: T1, cloned human or rodent CNS receptors, channels, and transporters (PDSP panel) (Homo sapiens, UniProt P34969); conditions: primary assay
T1 construct: expressed in transfected cells
T1 sequence (P34969 whole entry): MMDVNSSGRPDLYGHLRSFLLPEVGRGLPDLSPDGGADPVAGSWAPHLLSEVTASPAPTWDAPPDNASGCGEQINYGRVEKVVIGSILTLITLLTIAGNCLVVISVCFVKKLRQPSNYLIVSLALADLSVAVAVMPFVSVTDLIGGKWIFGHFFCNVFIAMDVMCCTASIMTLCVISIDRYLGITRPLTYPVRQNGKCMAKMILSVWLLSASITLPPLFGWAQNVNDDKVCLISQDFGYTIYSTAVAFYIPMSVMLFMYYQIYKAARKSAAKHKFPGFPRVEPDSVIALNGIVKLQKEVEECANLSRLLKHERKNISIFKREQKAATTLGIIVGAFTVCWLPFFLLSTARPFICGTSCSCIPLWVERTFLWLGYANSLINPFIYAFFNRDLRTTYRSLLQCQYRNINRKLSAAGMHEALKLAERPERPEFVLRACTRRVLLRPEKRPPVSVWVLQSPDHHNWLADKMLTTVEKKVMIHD
How it was run: (§1)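 Each compound is first screened once at 10 μM, in quadruplicate, for radioligand displacement. Where mean displacement passes 50%, an 11-point dose-response in triplicate follows at that target, except at H3, PBR and GABAA.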

[2] = target: T2, cloned human or rodent CNS receptors, channels, and transporters (PDSP panel) (Homo sapiens, UniProt P08908); conditions: primary assay
T2 construct: expressed in transfected cells
T2 sequence (P08908 1-422): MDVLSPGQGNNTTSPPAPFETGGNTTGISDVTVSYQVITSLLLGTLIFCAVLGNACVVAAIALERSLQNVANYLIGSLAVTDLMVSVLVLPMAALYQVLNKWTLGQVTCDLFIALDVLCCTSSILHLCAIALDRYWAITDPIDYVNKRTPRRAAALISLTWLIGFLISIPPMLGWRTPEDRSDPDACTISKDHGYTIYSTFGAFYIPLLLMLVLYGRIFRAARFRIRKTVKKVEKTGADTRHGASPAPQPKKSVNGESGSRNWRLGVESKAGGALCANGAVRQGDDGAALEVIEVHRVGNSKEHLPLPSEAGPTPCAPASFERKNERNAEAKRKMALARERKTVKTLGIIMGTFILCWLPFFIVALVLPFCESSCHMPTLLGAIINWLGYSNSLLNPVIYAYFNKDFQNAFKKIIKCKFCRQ
How it was run: as §1

[3] = target: T3, cloned human or rodent CNS receptors, channels, and transporters (PDSP panel) (Homo sapiens, UniProt P20309); conditions: primary assay
T3 construct: expressed in transfected cells
T3 sequence (P20309 whole entry): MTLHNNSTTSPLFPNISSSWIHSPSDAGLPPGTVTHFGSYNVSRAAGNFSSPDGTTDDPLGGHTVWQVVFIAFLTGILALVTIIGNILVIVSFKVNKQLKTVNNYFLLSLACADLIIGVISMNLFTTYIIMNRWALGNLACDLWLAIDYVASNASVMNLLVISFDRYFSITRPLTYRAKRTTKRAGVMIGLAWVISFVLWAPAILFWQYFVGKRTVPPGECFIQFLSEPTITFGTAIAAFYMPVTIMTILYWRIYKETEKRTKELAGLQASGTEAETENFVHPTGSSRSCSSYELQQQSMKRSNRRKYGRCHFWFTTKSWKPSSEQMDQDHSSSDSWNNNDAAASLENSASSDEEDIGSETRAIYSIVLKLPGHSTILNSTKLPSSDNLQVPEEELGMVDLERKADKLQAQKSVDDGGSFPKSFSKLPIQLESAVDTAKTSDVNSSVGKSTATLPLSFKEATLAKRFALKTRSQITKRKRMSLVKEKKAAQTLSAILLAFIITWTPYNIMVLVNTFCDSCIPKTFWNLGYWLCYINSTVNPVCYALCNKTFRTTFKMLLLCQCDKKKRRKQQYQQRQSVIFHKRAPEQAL
How it was run: as §1

[4] = target: T4, cloned human or rodent CNS receptors, channels, and transporters (PDSP panel) (Homo sapiens, UniProt P28222); conditions: primary assay
T4 construct: expressed in transfected cells
T4 sequence (P28222 whole entry): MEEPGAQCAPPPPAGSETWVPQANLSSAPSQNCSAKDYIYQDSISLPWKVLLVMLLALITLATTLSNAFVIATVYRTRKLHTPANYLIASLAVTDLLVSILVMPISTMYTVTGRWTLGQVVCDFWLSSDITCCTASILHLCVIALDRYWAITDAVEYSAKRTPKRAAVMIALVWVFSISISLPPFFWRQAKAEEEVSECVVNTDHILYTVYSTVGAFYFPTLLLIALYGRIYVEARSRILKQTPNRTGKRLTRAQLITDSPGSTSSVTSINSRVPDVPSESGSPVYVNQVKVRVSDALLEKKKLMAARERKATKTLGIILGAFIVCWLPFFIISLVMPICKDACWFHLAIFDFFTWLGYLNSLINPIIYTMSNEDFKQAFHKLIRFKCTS
How it was run: as §1

[5] = target: T5, cloned human or rodent CNS receptors, channels, and transporters (PDSP panel) (Homo sapiens, UniProt P46098); conditions: primary assay
T5 construct: expressed in transfected cells
T5 sequence (P46098 24-478): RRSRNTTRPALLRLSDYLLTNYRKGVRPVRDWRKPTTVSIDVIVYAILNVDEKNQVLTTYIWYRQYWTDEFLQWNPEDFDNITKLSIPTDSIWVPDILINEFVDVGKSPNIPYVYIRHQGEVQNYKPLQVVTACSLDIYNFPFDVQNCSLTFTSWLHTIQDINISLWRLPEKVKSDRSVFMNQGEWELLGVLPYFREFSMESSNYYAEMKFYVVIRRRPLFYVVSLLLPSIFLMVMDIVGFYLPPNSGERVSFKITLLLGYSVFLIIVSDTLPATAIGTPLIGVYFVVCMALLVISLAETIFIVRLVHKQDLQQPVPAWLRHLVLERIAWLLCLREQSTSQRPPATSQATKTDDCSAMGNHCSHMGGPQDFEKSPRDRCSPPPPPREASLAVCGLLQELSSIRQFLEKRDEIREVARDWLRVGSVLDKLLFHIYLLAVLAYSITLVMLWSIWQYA
How it was run: as §1

[6] = target: T6, cloned human or rodent CNS receptors, channels, and transporters (PDSP panel) (Homo sapiens, UniProt P11229); conditions: M1, primary assay; for Mean %: mean inhibition; for Inhibition 1: replicate 1; for Inhibition 2: replicate 2; for Inhibition 3: replicate 3; for Inhibition 4: replicate 4
T6 construct: expressed in transfected cells
T6 sequence (P11229 1-460): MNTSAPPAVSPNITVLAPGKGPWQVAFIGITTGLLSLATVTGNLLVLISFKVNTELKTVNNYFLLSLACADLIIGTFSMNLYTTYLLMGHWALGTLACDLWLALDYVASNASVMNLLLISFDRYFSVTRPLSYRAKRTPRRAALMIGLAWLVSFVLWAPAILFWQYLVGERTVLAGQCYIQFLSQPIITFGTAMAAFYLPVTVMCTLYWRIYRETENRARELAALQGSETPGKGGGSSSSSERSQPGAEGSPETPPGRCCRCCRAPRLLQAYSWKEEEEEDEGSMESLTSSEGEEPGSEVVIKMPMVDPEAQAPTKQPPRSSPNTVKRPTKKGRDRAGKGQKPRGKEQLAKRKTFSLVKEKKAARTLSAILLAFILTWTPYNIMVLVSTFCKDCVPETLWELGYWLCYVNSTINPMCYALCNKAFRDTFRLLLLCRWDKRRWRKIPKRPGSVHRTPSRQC
How it was run: as §1

[7] = target: T7, cloned human or rodent CNS receptors, channels, and transporters (PDSP panel) (Homo sapiens, UniProt Q01959); conditions: DAT, primary assay; for Mean %: mean inhibition; for Inhibition 1: replicate 1; for Inhibition 2: replicate 2; for Inhibition 3: replicate 3; for Inhibition 4: replicate 4
T7 construct: expressed in transfected cells
T7 sequence (Q01959 whole entry): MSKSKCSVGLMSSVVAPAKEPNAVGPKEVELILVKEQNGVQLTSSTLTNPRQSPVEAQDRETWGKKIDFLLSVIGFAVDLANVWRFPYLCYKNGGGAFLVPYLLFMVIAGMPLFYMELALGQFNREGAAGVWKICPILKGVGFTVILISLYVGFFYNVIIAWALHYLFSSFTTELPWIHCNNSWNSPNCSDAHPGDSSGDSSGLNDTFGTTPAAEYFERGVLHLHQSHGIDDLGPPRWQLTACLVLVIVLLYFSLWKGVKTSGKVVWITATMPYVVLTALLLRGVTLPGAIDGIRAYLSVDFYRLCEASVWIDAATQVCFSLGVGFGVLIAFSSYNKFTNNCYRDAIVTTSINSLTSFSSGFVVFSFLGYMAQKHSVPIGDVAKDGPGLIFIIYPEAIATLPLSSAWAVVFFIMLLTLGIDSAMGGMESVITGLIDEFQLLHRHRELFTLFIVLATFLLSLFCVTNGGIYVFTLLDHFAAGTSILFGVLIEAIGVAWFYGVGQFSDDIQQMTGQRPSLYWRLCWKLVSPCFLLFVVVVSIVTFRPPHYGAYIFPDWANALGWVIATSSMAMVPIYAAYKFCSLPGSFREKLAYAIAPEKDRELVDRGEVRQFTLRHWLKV
How it was run: as §1

[8] = target: T8, cloned human or rodent CNS receptors, channels, and transporters (PDSP panel) (Homo sapiens, UniProt P25021); conditions: H2, primary assay; for Mean %: mean inhibition; for Inhibition 1: replicate 1; for Inhibition 2: replicate 2; for Inhibition 3: replicate 3; for Inhibition 4: replicate 4
T8 construct: expressed in transfected cells
T8 sequence (P25021 whole entry): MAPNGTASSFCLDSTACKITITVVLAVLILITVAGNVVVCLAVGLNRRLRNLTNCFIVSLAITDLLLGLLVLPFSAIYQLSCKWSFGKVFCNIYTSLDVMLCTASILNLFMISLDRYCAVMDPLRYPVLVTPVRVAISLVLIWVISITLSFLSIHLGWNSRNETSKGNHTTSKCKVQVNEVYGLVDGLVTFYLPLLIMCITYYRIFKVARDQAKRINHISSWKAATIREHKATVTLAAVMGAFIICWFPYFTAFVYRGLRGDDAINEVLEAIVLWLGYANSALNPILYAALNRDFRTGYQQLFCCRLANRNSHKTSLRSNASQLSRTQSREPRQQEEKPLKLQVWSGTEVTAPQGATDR
How it was run: as §1

[9] = target: T9, cloned human or rodent CNS receptors, channels, and transporters (PDSP panel) (Homo sapiens, UniProt P35367); conditions: primary assay
T9 construct: expressed in transfected cells
T9 sequence (P35367 whole entry): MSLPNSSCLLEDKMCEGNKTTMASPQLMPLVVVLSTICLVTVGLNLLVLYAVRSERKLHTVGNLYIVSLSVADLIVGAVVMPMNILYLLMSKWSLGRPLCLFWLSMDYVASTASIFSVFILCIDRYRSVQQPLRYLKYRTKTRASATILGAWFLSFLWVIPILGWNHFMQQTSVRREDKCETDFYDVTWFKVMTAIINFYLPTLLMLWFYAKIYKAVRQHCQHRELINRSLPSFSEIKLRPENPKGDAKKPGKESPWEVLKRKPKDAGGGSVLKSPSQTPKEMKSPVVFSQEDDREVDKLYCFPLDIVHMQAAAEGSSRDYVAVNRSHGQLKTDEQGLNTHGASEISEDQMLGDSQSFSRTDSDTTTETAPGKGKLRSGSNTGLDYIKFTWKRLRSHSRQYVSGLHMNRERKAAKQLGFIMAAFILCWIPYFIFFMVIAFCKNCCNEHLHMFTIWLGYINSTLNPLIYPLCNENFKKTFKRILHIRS
How it was run: as §1

Mean % ([1]; 5-HT7A, mean inhibition): 35.21%
Inhibition 1 ([1]; 5-HT7A, replicate 1): 10.61%
Inhibition 2 ([1]; 5-HT7A, replicate 2): 51.06%
Inhibition 3 ([1]; 5-HT7A, replicate 3): 19.91%
Inhibition 4 ([1]; 5-HT7A, replicate 4): 59.27%
Mean % ([2]; 5-HT1A, mean inhibition): 4.14%
Inhibition 1 ([2]; 5-HT1A, replicate 1): 11.98%
Inhibition 2 ([2]; 5-HT1A, replicate 2): 4.74%
Inhibition 3 ([2]; 5-HT1A, replicate 3): -9.57%
Inhibition 4 ([2]; 5-HT1A, replicate 4): 9.39%
Mean % ([3]; M3, mean inhibition): 1.63%
Inhibition 1 ([3]; M3, replicate 1): 7.99%
Inhibition 2 ([3]; M3, replicate 2): 2.67%
Inhibition 3 ([3]; M3, replicate 3): -7.08%
Inhibition 4 ([3]; M3, replicate 4): 2.95%
Mean % ([4]; 5-HT1B, mean inhibition): -2.56%
Inhibition 1 ([4]; 5-HT1B, replicate 1): 6.88%
Inhibition 2 ([4]; 5-HT1B, replicate 2): -14.35%
Inhibition 3 ([4]; 5-HT1B, replicate 3): 0.2%
Inhibition 4 ([4]; 5-HT1B, replicate 4): -2.95%
Mean % ([5]; 5-HT3, mean inhibition): 8.2%
Inhibition 1 ([5]; 5-HT3, replicate 1): 4.04%
Inhibition 2 ([5]; 5-HT3, replicate 2): 9.4%
Inhibition 3 ([5]; 5-HT3, replicate 3): -1.71%
Inhibition 4 ([5]; 5-HT3, replicate 4): 21.06%
Mean % [6]: -5.74%
Inhibition 1 [6]: 6.11%
Inhibition 2 [6]: -4.99%
Inhibition 3 [6]: -11.01%
Inhibition 4 [6]: -13.08%
Mean % [7]: 54.13%
Inhibition 1 [7]: 56.61%
Inhibition 2 [7]: 53.37%
Inhibition 3 [7]: 54.99%
Inhibition 4 [7]: 51.53%
Mean % [8]: -21%
Inhibition 1 [8]: -8.72%
Inhibition 2 [8]: -33.49%
Inhibition 3 [8]: -19.51%
Inhibition 4 [8]: -22.27%
Mean % ([9]; H1, mean inhibition): 71.69%
Inhibition 1 ([9]; H1, replicate 1): 93.05%
Inhibition 2 ([9]; H1, replicate 2): 75.46%
Inhibition 3 ([9]; H1, replicate 3): 68.14%
Inhibition 4 ([9]; H1, replicate 4): 50.11%
SMILES: CNc1nc(C)nc(N[C@H]2CCC[C@@H](C(=O)NCc3ccc(C#N)cc3C(F)(F)F)C2)n1 [UNC10302679A, GSK2256294A]

SMILES: O=c1oc2ccccc2cc1-c1cn2cc(Cc3ccc(F)cc3)sc2n1 [UNC10302680A, iMDK]
Inhibition 1 ([1]; Receptor 5-HT7A, 10 μM): 13.87%
Inhibition 2 ([1]; Receptor 5-HT7A, 10 μM): 2.87%
Inhibition 3 ([1]; Receptor 5-HT7A, 10 μM): -0.54%
Inhibition 4 ([1]; Receptor 5-HT7A, 10 μM): 21.31%
Mean % ([1]; Receptor 5-HT7A, 10 μM, mean of Inhibition 1-4): 9.38%
Inhibition 1 ([2]; Receptor 5-HT1A, 10 μM): 5.77%
Inhibition 2 ([2]; Receptor 5-HT1A, 10 μM): 4.57%
Inhibition 3 ([2]; Receptor 5-HT1A, 10 μM): -6.98%
Inhibition 4 ([2]; Receptor 5-HT1A, 10 μM): 3.71%
Mean % ([2]; Receptor 5-HT1A, 10 μM, mean of Inhibition 1-4): 1.77%
Inhibition 1 ([3]; Receptor M3, 10 μM): 9.1%
Inhibition 2 ([3]; Receptor M3, 10 μM): 60.54%
Inhibition 3 ([3]; Receptor M3, 10 μM): 10.14%
Inhibition 4 ([3]; Receptor M3, 10 μM): 13.11%
Mean % ([3]; Receptor M3, 10 μM, mean of Inhibition 1-4): 23.22%
Inhibition 1 ([4]; Receptor 5-HT1B, 10 μM): 28.3%
Inhibition 2 ([4]; Receptor 5-HT1B, 10 μM): -13.17%
Inhibition 3 ([4]; Receptor 5-HT1B, 10 μM): 0.98%
Inhibition 4 ([4]; Receptor 5-HT1B, 10 μM): -13.17%
Mean % ([4]; Receptor 5-HT1B, 10 μM, mean of Inhibition 1-4): 0.74%
Inhibition 1 ([5]; Receptor 5-HT3, 10 μM): 1.94%
Inhibition 2 ([5]; Receptor 5-HT3, 10 μM): 26.27%
Inhibition 3 ([5]; Receptor 5-HT3, 10 μM): 17.25%
Inhibition 4 ([5]; Receptor 5-HT3, 10 μM): 14.61%
Mean % ([5]; Receptor 5-HT3, 10 μM, mean of Inhibition 1-4): 15.02%
Mean % [6]: 7.01%
Inhibition 1 [6]: 16.84%
Inhibition 2 [6]: 2.54%
Inhibition 3 [6]: 0.66%
Inhibition 4 [6]: 8%
Mean % [7]: 24.58%
Inhibition 1 [7]: 19.55%
Inhibition 2 [7]: 22.26%
Inhibition 3 [7]: 29.6%
Inhibition 4 [7]: 26.9%
Mean % [8]: 13.61%
Inhibition 1 [8]: 32.28%
Inhibition 2 [8]: 15.29%
Inhibition 3 [8]: 9.61%
Inhibition 4 [8]: -2.74%
Inhibition 1 ([9]; Receptor H1, 10 μM): 99.74%
Inhibition 2 ([9]; Receptor H1, 10 μM): 88.41%
Inhibition 3 ([9]; Receptor H1, 10 μM): 71.44%
Inhibition 4 ([9]; Receptor H1, 10 μM): 51.8%
Mean % ([9]; Receptor H1, 10 μM, mean of Inhibition 1-4): 77.85%

SMILES: CCC(=O)N1CCC(NC(=O)Nc2ccc(OC(F)(F)F)cc2)CC1 [UNC10302681A, TPPU]
Mean % ([1]; 5-HT7A, mean inhibition): 28.67%
Inhibition 1 ([1]; 5-HT7A, replicate 1): 34.17%
Inhibition 2 ([1]; 5-HT7A, replicate 2): 16.81%
Inhibition 3 ([1]; 5-HT7A, replicate 3): 23.63%
Inhibition 4 ([1]; 5-HT7A, replicate 4): 40.05%
Mean % ([2]; 5-HT1A, mean inhibition): 6.94%
Inhibition 1 ([2]; 5-HT1A, replicate 1): 9.39%
Inhibition 2 ([2]; 5-HT1A, replicate 2): 25.6%
Inhibition 3 ([2]; 5-HT1A, replicate 3): 0.78%
Inhibition 4 ([2]; 5-HT1A, replicate 4): -8.02%
Mean % ([3]; M3, mean inhibition): 3.57%
Inhibition 1 ([3]; M3, replicate 1): 4.75%
Inhibition 2 ([3]; M3, replicate 2): 5.92%
Inhibition 3 ([3]; M3, replicate 3): 13.87%
Inhibition 4 ([3]; M3, replicate 4): -10.26%
Mean % ([4]; 5-HT1B, mean inhibition): -0.64%
Inhibition 1 ([4]; 5-HT1B, replicate 1): 7.08%
Inhibition 2 ([4]; 5-HT1B, replicate 2): 0.59%
Inhibition 3 ([4]; 5-HT1B, replicate 3): -3.14%
Inhibition 4 ([4]; 5-HT1B, replicate 4): -7.08%
Mean % ([5]; 5-HT3, mean inhibition): 17.23%
Inhibition 1 ([5]; 5-HT3, replicate 1): 6.76%
Inhibition 2 ([5]; 5-HT3, replicate 2): 16.16%
Inhibition 3 ([5]; 5-HT3, replicate 3): 12.2%
Inhibition 4 ([5]; 5-HT3, replicate 4): 33.8%
Mean % [6]: -5.22%
Inhibition 1 [6]: 4.61%
Inhibition 2 [6]: -16.27%
Inhibition 3 [6]: -3.29%
Inhibition 4 [6]: -5.93%
Mean % [7]: 59.91%
Inhibition 1 [7]: 71.52%
Inhibition 2 [7]: 71.2%
Inhibition 3 [7]: 51.64%
Inhibition 4 [7]: 45.27%
Mean % [8]: -16.74%
Inhibition 1 [8]: -3.12%
Inhibition 2 [8]: -11.73%
Inhibition 3 [8]: -19.51%
Inhibition 4 [8]: -32.59%
Mean % ([9]; H1, mean inhibition): 74.57%
Inhibition 1 ([9]; H1, replicate 1): 97.51%
Inhibition 2 ([9]; H1, replicate 2): 87.07%
Inhibition 3 ([9]; H1, replicate 3): 65.55%
Inhibition 4 ([9]; H1, replicate 4): 48.14%
